Measurements published in patent publication US9145354B2, “Pharmaceutical compounds” (priority 2011, dated 2015).
Structures can show the parent of a compound that is named as a salt. Where two headings read alike, the source gives them in different places.

Molecular target: full length NS3/4a (Hepatitis C virus genotype 1b (isolate BK) (HCV), UniProt P26663)
Experiment: NS3 Protease Assay (Example A), FRET-based
Format: biochemical
In short: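 Initial rates were taken from fluorescence progress curves over 30 min at room temperature, and IC50 was fitted across replicates. In-house full-length NS3/4a cleaved a FRET peptide (5-FAMsp/QXL520) from the NS4A/B site. Medium: 50 mM Tris pH8, 20 mM DTT, 1% CHAPS, 10% glycerol, 5% DMSO.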

[1] = read-out: IC50 against the protease activity of the full length NS3/4a
[2] = HCV NS3 protease assay, full length NS3/4a, read-out: Assay A IC50 (μM) average
[3] = stated as IC50 less than 30 μM or at least 40% inhibition at a concentration of 100 μM, read-out: IC50 against the protease activity of the full length NS3/4a

Sequence of full length NS3/4a (P26663 1027-1657): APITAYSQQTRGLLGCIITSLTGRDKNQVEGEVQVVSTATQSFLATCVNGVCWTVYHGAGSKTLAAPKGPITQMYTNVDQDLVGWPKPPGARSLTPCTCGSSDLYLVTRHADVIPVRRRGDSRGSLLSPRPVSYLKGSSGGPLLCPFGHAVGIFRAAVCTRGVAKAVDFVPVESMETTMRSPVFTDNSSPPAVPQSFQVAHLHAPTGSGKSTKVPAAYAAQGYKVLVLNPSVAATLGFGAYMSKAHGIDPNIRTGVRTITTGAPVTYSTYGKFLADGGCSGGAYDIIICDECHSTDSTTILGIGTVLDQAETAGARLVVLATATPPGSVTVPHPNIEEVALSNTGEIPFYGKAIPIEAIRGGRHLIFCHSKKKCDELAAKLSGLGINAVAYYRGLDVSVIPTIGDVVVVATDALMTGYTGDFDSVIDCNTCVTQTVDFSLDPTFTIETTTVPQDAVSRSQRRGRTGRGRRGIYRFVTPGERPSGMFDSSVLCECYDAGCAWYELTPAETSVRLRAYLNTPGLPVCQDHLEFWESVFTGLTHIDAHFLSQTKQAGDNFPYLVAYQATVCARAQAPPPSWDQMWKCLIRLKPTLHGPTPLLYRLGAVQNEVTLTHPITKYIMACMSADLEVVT

Compound | IC50 [1] [µM] | IC50 [2] [µM] | further results
CC[C@@H](NC(=O)C1=CCNC1)c1ccc(Cl)c(C(=O)c2cccnc2)c1F [Example 291, N-[(1R)-1-{4-chloro-2-fluoro-3-[(pyridin-3-yl)carbonyl]phenyl}propyl]-2,5-dihydro-1H-pyrrole-3-carboxamide] | 1 to 5 |  | inhibition at 3 µM: 51%
CC[C@@H](N[C@H](C)CC(N)=O)c1ccc(Cl)c(C(=O)c2ccns2)c1F [Example 109, (3R)-3-{[(1R)-1-{4-chloro-2-fluoro-3-[(1,2-thiazol-5-yl)carbonyl]phenyl}propyl]-amino}butanamide] |  | 0.47 | 
CC[C@@H](N[C@H](C)CC(N)=O)c1ccc(OC)c(C(=O)c2cccc(C#N)c2)c1F [Example 277, (3R)-3-{[(1R)-1-{3-[(3-cyanophenyl)carbonyl]-2-fluoro-4-methoxyphenyl}propyl]amino}butanamide] |  | 0.73 | 
CC[C@@H](N[C@H](C)CC(N)=O)c1ccc(Cl)c(C(=O)c2ccc[n+]([O-])c2)c1F [Example 117, (R)-3-{(R)-1-[4-Chloro-2-fluoro-3-(1-oxy-pyridine-3-carbonyl)-phenyl]propylamino}-butyramide] |  |  | Assay A % inhibition average (@ 10 uM): 16% @ 10 uM
CC[C@@H](N)c1ccc(Cl)c(C(=O)c2cccnc2)c1F [Example 2, (1R)-1-{4-chloro-2-fluoro-3-[(pyridin-3-yl)carbonyl]phenyl}-propan-1-amine] | 1 to 5 | 1.4 | 
CC[C@@H](N)c1ccc(Cl)c(C(=O)c2cccc(O)c2)c1F [Example 204, 3-({3-[(1R)-1-aminopropyl]-6-chloro-2-fluorophenyl}-carbonyl)phenol] |  | 0.17 | 
CC[C@@H](N)c1ccc(Cl)c(C(=O)c2cnc(SC)nc2)c1F [Example 51, (1R)-1-(4-chloro-2-fluoro-3-{[2-(methylsulfanyl)pyrimidin-5-yl]carbonyl}phenyl)propan-1-amine] |  |  | inhibition at 3 µM: 44%; IC50 [3]: < 30 µM
CC[C@@H](NCCCO)c1ccc(Cl)c(C(=O)c2ccccc2)c1F [Example 181, 3-{[(1R)-1-(3-benzoyl-4-chloro-2-fluorophenyl)propyl]-amino}propan-1-ol] |  | 0.26 | 
C[C@H](CC(N)=O)N[C@@H](c1ccc(Cl)c(C(=O)c2ccc(N)c(Cl)c2)c1F)C1CC1 [Example 202, (3R)-3-{[(R)-{3-[(4-amino-3-chlorophenyl)carbonyl]-4-chloro-2-fluorophenyl}(cyclopropyl)methyl]amino}butanamide] |  | 0.31 | 
CC[C@@H](N)c1ccc(Cl)c(C(=O)c2ccc(-n3cccn3)nc2)c1F [Example 37, (1R)-1-(4-chloro-2-fluoro-3-{[6-(1H-pyrazol-1-yl)pyridin-3-yl]carbonyl}phenyl)propan-1-amine] | < 1 | 0.49 | 
CC[C@@H](N)c1ccc(Cl)c(C(=O)c2ccc(C(N)=O)nc2)c1F [Example 22, 5-({3-[(1R)-1-aminopropyl]-6-chloro-2-fluorophenyl}carbonyl)pyridine-2-carboxamide] | 1 to 5 | 1.8 | 
CC[C@@H](N[C@@H](C)CC(N)=O)c1ccc(Cl)c(C(=O)c2cnc(N)cn2)c1F [Example 138, (3S)-3-{[(1R)-1-{3-[(5-aminopyrazin-2-yl)carbonyl]-4-chloro-2-fluorophenyl}propyl]-amino}butanamide] | < 1 | 0.31 | 
CC[C@@H](N[C@@H](C)CC(N)=O)c1ccc(Cl)c(C(=O)c2ccc(CO)cc2)c1F [Example 186, (3S)-3-{[(1R)-1-(4-chloro-2-fluoro-3-{[4-(hydroxymethyl)-phenyl]carbonyl}phenyl)propyl]amino}-butanamide] |  | 0.11 | 
NC(=O)CCN[C@@H](c1ccc(Cl)c(C(=O)c2cnc(N)cn2)c1F)C1CC1 [Example 185, 3-{[(R)-{3-[(5-aminopyrazin-2-yl)carbonyl]-4-chloro-2-fluorophenyl}(cyclo-propyl)methyl]amino}-propanamide] |  | 0.6 | 
CC[C@@H](N)c1ccc(Cl)c(C(=O)c2ccc(Cl)nn2)c1F [Example 214, (1R)-1-{4-chloro-3-[(6-chloropyridazin-3-yl)carbonyl]-2-fluorophenyl}propan-1-amine] |  |  | inhibition at 10 µM (@ 10 uM): 51%; IC50 [3]: < 30 µM
CC[C@H](NC(=O)CCN)c1ccc(Cl)c(C(=O)c2ccc(N)nc2)c1F [Example 303] | < 1 | 0.065 | 
CC[C@@H](N)c1ccc(Cl)c(C(=O)c2ccc(C#N)c(OC)c2)c1F [Example 222, 4-({3-[(1R)-1-aminopropyl]-6-chloro-2-fluorophenyl}carbonyl)-2-methoxybenzonitrile] |  |  | inhibition at 0.03 µM (@ 0.03 uM): 45%; IC50 [3]: < 30 µM

Compound | IC50 [1] [µM] | IC50 [2] [µM] | further results
CC[C@H](NC(=O)C[C@@H](N)C(C)C)c1ccc(Cl)c(C(=O)c2cccnc2)c1F [Example 298, (3R)-3-amino-N-[(1S)-1-{4-chloro-2-fluoro-3-[(pyridin-3-yl)carbonyl]phenyl}propyl]-4-methylpentanamide] | < 1 | 0.064 | 
CC[C@@H](N)c1ccc(Cl)c(C(=O)c2ccc(F)c(F)c2)c1F [Example 13, (1R)-1-{4-chloro-3-[(3,4-difluorophenyl)carbonyl]-2-fluorophenyl}propan-1-amine] | < 1 | 0.83 | 
CC[C@@H](N[C@H](C)CC(N)=O)c1ccc(Cl)c(C(=O)c2ccc3c(c2)OCC(=O)N3)c1F [Example 248, (3R)-3-{[(1R)-1-{4-chloro-2-fluoro-3-[(3-oxo-3,4-dihydro-2H-1,4-benzoxazin-7-I)carbonyl]phenyl}propyl]amino}butanamide] | 1 to 5 | 2 | 
CC[C@@H](NCCO)c1ccc(Cl)c(C(=O)c2cccnc2)c1F [Example 163, 2-{[(1R)-1-{4-Chloro-2-fluoro-3-[(pyridin-3-yl)carbonyl]phenyl}propyl]amino}ethan-1-ol] |  |  | inhibition at 10 µM (@ 10 uM): 62%; IC50 [3]: < 30 µM
N[C@@H](c1ccc(Cl)c(C(=O)c2ccc(CO)cc2)c1F)C1CC1 [Example 68, [4-({3-[(R)-amino(cyclopropyl)methyl]-6-chloro-2-fluorophenyl}-carbonyl)phenyl]methanol hydrochloride] |  | 0.21 | 
COc1ccc([C@H](N[C@@H](C)CC(N)=O)C2CC2)c(F)c1C(=O)c1ccc(F)cc1 [Example 210, (3S)-3-{[(R)-cyclopropyl({2-fluoro-3-[(4-fluorophenyl)carbonyl]-4-methoxyphenyl})methyl]amino} butanamide] | < 1 | 0.098 | 
CC[C@@H](N[C@@H](C)CC(N)=O)c1ccc(Cl)c(C(=O)c2ccc(OC)c(C#N)c2)c1F [Example 215, (3S)-3-{[(1R)-1-{4-chloro-3-[(3-cyano-4-methoxyphenyl)carbonyl]-2-fluorophenyl}propyl]amino} butanamide] | 1 to 5 | 1.2 | 
CC[C@@H](N[C@H](C)CC(N)=O)c1ccc(Cl)c(C(=O)c2cccc(F)c2)c1F [Example 96, (3R)-3-{[(1R)-1-{4-chloro-2-fluoro-3-[(3-fluorophenyl)-carbonyl]phenyl}propyl]amino}butanamide] |  |  | inhibition at 0.3 µM (@ 0.3 uM): 58%
CC[C@@H](N[C@H](C)c1cn[nH]c1)c1ccc(Cl)c(C(=O)c2cccnc2)c1F [Example 300, [(1R)-1-{4-chloro-2-fluoro-3-[(pyridin-3-yl)carbonyl]phenyl}propyl] [(1R)-1-(1H-pyrazol-4-yl)ethyl]amine] |  |  | inhibition at 30 µM: 48%; IC50 [3]: < 30 µM
CC[C@@H](N[C@H](C)CC(N)=O)c1ccc(Cl)c(C(=O)c2ccc(N(C)C)nc2)c1F [Example 137, (3R)-3-{[(1R)-1-(4-chloro-3-{[6-(dimethylamino)pyridin-3-yl]carbonyl}-2-fluorophenyl)propyl]amino}butanamide] |  |  | inhibition at 30 µM: 60%; IC50 [3]: < 30 µM
CC[C@@H](N[C@H](C)CC(N)=O)c1ccc(Cl)c(C(=O)c2ccccc2)c1F [Example 114, (3R)-3-{[(1R)-1-(3-benzoyl-4-chloro-2-fluorophenyl)-(2,2,3,3,3-D)propyl]amino}-butanamide] |  | 0.75 | 
CC[C@@H](N[C@H](C)c1cnc[nH]1)c1ccc(Cl)c(C(=O)c2cccnc2)c1F [Example 304, [(1R)-1-{4-chloro-2-fluoro-3-[(pyridin-3-yl)carbonyl]phenyl}propyl] [(1R)-1-(1H-imidazol-5-yl)ethyl]amine] | 1 to 5 | 4.7 | 
CC[C@@H](N[C@H](C)CC(N)=O)c1ccc(Cl)c(C(=O)c2cccc(O)c2)c1F [Example 228, (3R)-3-{[(1R)-1-{4-chloro-2-fluoro-3-[(3-hydroxyphenyl)carbonyl]phenyl}propyl]amino}butanamide] | < 1 | 0.73 | 
CC[C@@H](N[C@H](C)CC(N)=O)c1ccc(Cl)c(C(=O)c2cccc(C(=O)O)c2)c1F [Example 123, 3-({3-[(1R)-1-{[(2R)-1-carbamoylpropan-2-yl]amino}propyl]-6-chloro-2-fluorophenyl}carbonyl)-benzoic acid] | 1 to 5 | 3.2 | 
CC[C@@H](N[C@@H](C)CC(N)=O)c1ccc(Cl)c(C(=O)c2ccc(NC)nc2)c1F [Example 207, (3S)-3-{[(1R)-1-(4-chloro-2-fluoro-3-{[6-(methylamino)pyridin-3-yl]carbonyl}phenyl)propyl]amino}butanamide] | < 1 | 0.37 | 
CC[C@@H](N)c1ccc(Cl)c(C(=O)c2cccc(CO)c2)c1F [Example 54, [3-({3-[(1R)-1-aminopropyl]-6-chloro-2-fluorophenyl}carbonyl)phenyl]methanol] | < 1 | 0.14 | 
CC[C@@H](N[C@@H](C)c1cn[nH]c1)c1ccc(Cl)c(C(=O)c2cccnc2)c1F [Example 301, [(1R)-1-{4-chloro-2-fluoro-3-[(pyridin-3-yl)carbonyl]phenyl}propyl] [(1S)-1-(1H-pyrazol-4-yl)ethyl]amine] |  |  | inhibition at 10 µM (@ 10 uM): 65%; IC50 [3]: < 30 µM
